Bridge positions count the residues as written; N and C are the ends. Square brackets hold non-standard residues; d marks the D form. Peptide text beside a SMILES is read from it. pGlu = O=C1CC[C@@H](C(=O)O)N1

The source of these data is article PMC11678162 (Pharmaceutics, 2024).

Data set [1] deals with freshly isolated human erythrocytes (hRBCs). The experiment in a line: Hemolysis (hemoglobin release assay). It is filed as cell-based. Particulars: 4% hRBCs, 1.5 h of incubation. As to the method: Hemolytic activity was determined using freshly isolated human erythrocytes (hRBCs) according to a previously published method. Isotonic phosphate buffer (PBS) and 0.1% Triton X-100 were used as controls for the absence of lysis and complete disintegration of hRBCs, respectively.

The next data set is described as follows: Stability in serum. It is filed as in vitro ADME, human. To be noted: 37 °C. On the procedure:
The serum stability of DsGom was determined in 25% fresh human serum in PBS (pH 7.4), as described previously. Briefly, 20 μL of aqueous peptide stock solution (5 mg/mL) was added to 480 μL of serum solution and incubated for 0, 2, 8, and 24 h at 37 °C. After incubation, serum proteins were selectively precipitated from the mixture by adding 10% TFA in the presence of 3.75 M of urea. Subsequently, the samples were stored at 0 °C for 30 min and centrifuged at 30,000× g for 10 min. Equal volumes of supernatants after serum protein precipitation were analyzed by analytical HPLC (Symmetry 300 C18 column, Waters, Milford, MA, USA) and MALDI-TOF MS. The amount of the intact peptide was estimated from the corresponding peak area on the HPLC chromatogram. For each peptide, two independent experiments were performed in triplicate. The comparison of the results and statistical processing were performed using GraphPad Prism 6.0 (GraphPad Software, Boston, MA, USA).

A short description of data set [2]: 25% fresh human serum in PBS (pH 7.4). To be noted: 37 °C, up to 24 h.
Data set [3] deals with human peripheral blood mononuclear cells (PBMC). The experiment in a line: Cytotoxicity, resazurin assay. It is filed as cell-based. Particulars: RPMI-1640 + 10% FBS, 24 h of incubation. As to the method: The cytotoxic effect of the peptides was tested on human peripheral blood mononuclear cells (PBMC) using the resazurin assay. To perform the analysis, double serial dilutions of the studied peptides were performed in RPMI-1640 nutrient medium supplemented with 10% FBS in sterile 96-well flat-bottom polystyrene microplates (Nest, Wuxi, Jiangsu, China). Next, an equal volume of RPMI medium containing a suspension of freshly isolated PBMC was added to the peptide solution to a total volume of 100 μL and a cell concentration of 5 × 10^4 per well. The plates were incubated for 20 h in a CO2 incubator (5% CO2, 37 °C) and then 5 µL of resazurin solution was added at a concentration of 0.1 mg/mL, after which the incubation was continued for 4 h. The fluorescence of the formed resorufin was measured using an AF2200 microplate reader (Eppendorf, Germany) using the following channel: λExc = 535 nm; λem = 595 nm. The fluorescence signal in the wells containing cells cultured without peptides was taken as a 100% cell viability. Wells containing no cells were used as a negative control. Experimental data were obtained in two independent experiments performed in triplicate.

A short description of the next data set: serum. To be noted: cited from earlier work.

For the molecule `CC(C)[C@@H]1NC(=O)[C@@H]2CSSC[C@H](NC(=O)[C@H](C(C)C)NC(=O)[C@H](CCCNC(=N)N)NC(=O)[C@H](Cc3c[nH]cn3)NC(=O)[C@@H](NC(=O)[C@@H](N)CCCNC(=N)N)CSSC[C@@H](C(=O)O)NC(=O)[C@H](Cc3ccc(O)cc3)NC(=O)[C@H](CCC(N)=O)NC1=O)C(=O)N[C@@H](Cc1ccc(O)cc1)C(=O)N[C@@H](Cc1c[nH]cn1)C(=O)N[C@@H](CCCCN)C(=O)N[C@@H](Cc1c[nH]cn1)C(=O)N2` [DsGom] (H-RCHRVCYHKHCVQYC-OH; disulfide 2-15, 6-11), in data set [1] (128 µM peptide, 0.1% Triton X-100 = complete lysis, two independent experiments), the grade of hemolysis is reported as ~ 1%. For the same molecule, in the data set “Stability in serum” (25% fresh human serum in PBS (pH 7.4), 20 μL of 5 mg/mL stock in 480 μL, TFA/urea precipitation, HPLC peak area (0 h = 100%), two independent experiments in triplicate, read-out: initial amount of peptide remaining intact), the amount remaining at 24 h, 0.2 mg/mL is at least 90%. Moreover, the “percentage of the form without the N-terminal arginine residue in the main peak” value in “Stability in serum” (25% human serum in PBS, 24 h, MALDI MS of the HPLC fraction) is recorded as below 10%.

On to RCHRVCYHKHCVQYC, for which the cleaved bond result in data set [2] is “Arg1-C2, minor, 8 h”.

In the case of `CC(C)[C@@H]1NC(=O)[C@@H]2CSSC[C@H](NC(=O)[C@H](C(C)C)NC(=O)[C@H](CCCNC(=N)N)NC(=O)[C@H](CCCNC(=N)N)NC(=O)[C@@H](NC(=O)[C@@H](N)CCCNC(=N)N)CSSC[C@@H](C(=O)O)NC(=O)[C@H](Cc3ccc(O)cc3)NC(=O)[C@H](CCC(N)=O)NC1=O)C(=O)N[C@@H](Cc1ccc(O)cc1)C(=O)N[C@@H](CCCCN)C(=O)N[C@@H](CCCCN)C(=O)N[C@@H](Cc1c[nH]cn1)C(=O)N2` [DS5] (H-RCRRVCYKKHCVQYC-OH; disulfide 2-15, 6-11), the “cytotoxic effects on PBMC (in words)” value in data set [3] is recorded as “significantly enhanced cytotoxic effects on PBMC”.

As for `CC(C)C[C@@H]1NC(=O)[C@H](CCCNC(=N)N)NC(=O)[C@H](CCCNC(=N)N)NC(=O)[C@@H](NC(=O)[C@@H]2CCC(=O)N2)CSSC[C@@H](C(=O)N[C@@H](CO)C(=O)NCC(=O)N[C@@H](CCCNC(=N)N)C(=O)O)NC(=O)[C@H](Cc2ccc(O)cc2)NC(=O)[C@H]([C@@H](C)O)NC(=O)[C@H](CC(C)C)NC(=O)[C@@H]2CSSC[C@H](NC1=O)C(=O)N[C@@H](Cc1ccccc1)C(=O)N[C@@H](CCCNC(=N)N)C(=O)N[C@@H](CC(N)=O)C(=O)N[C@@H](CCCNC(=N)N)C(=O)N2` [Gom-2] ([pGlu]CRRLCFRNRCLTYCSGR-OH; disulfide 2-15, 6-11), in data set [1] (compared to gomesin), the “hemolytic activity (in words)” value was “significantly higher grade of hemolytic activity”.

Turning to `CC(C)[C@@H]1NC(=O)[C@@H]2CSSC[C@H](NC(=O)[C@H](C(C)C)NC(=O)[C@H](CCCNC(=N)N)NC(=O)[C@H](CCCNC(=N)N)NC(=O)[C@@H](NC(=O)[C@@H](N)CCCNC(=N)N)CSSC[C@@H](C(=O)O)NC(=O)[C@H](Cc3ccc(O)cc3)NC(=O)[C@H](CCC(N)=O)NC1=O)C(=O)N[C@@H](Cc1ccc(O)cc1)C(=O)N[C@@H](CCCCN)C(=O)N[C@@H](CCCCN)C(=O)N[C@@H](CCCNC(=N)N)C(=O)N2` [DS7] (H-RCRRVCYKKRCVQYC-OH; disulfide 2-15, 6-11), the “cytotoxic effects on PBMC (in words)” value in data set [3] is given as “significantly enhanced cytotoxic effects on PBMC”.

For ZCRRLCYKQRCVTYCRGR, in the data set “serum”, the not cleaved entry was “quite stable in the presence of serum enzymes”.
